Values after ≈ are worked out from the molar mass of the structure shown. Where two headings read alike, the source gives them in different places.
How the values were obtained:
[1] = tested on: HBV; test: Selectivity index (CC50 value/EC50 value); type: cell-based, Hepatitis B virus
Description: Based on FDA guidance, in order to support clinical testing in humans, the assessment of acceptable risk-benefit has to be achieved by providing clear evidence of in vitro antiviral activity (EC50) and cytotoxicity (CC50). It is important to establish that an investigational product has antiviral activity at concentrations that can be achieved in vivo without inducing toxic effects to cells. Furthermore, in a cell culture model, apparent antiviral activity of an investigational product can be the result of host cell death after exposure to the product. The relative effectiveness of the compound in inhibiting viral replication compared to inducing cell death is defined as the selectivity index (CC50 value/EC50 value). It is desirable to have a high selectivity index giving maximum antiviral activity with minimal cell toxicity.
The relative effectiveness of the compound in inhibiting viral replication compared to inducing cell death is defined as the selectivity index (CC50 value/EC50 value). It is desirable to have a high selectivity index giving maximum antiviral activity with minimal cell toxicity.

[2] = tested on: HBV; test: Anti-HBV activity in vitro in HepG2.2.15 cells (extracellular HBV DNA by qPCR); type: cell-based, Hepatitis B virus; conditions: Hepatitis B virus
Description: (§1) HepG2.2.15 and HepDE19 are stably-transfected cell lines containing the HBV genome. Both cell lines are derived from the hepatoblastoma cell line Hep G2 (American Type Culture Collection, ATCC® HB-8065™) by the published procedures described in references: MA Selles et al. Proc. Natl. Acad. Sci. USA 1987, 84, 1005-1009 and H Guo et al. Journal of Virology 2007, 81, 12472-12484, respectively. Both cell lines were maintained in Dulbecco's modified Eagle's medium (DMEM)-F12 medium supplemented with 10% fetal bovine serum, 100 U/mL penicillin, 100 μg/mL streptomycin, and 0.5 mg/mL of G418.
While HepG2.2.15 cells constitutively support HBV replication and production of virus particles, HepDE19 cells are inducible by tetracycline. Addition of 1 μg/mL tetracycline in culture medium suppresses HBV replication in HepDE19 cells, whereas switching to tetracycline-free medium resumes this process.
HepG2.2.15 cells were seeded into 96-well plates (3×10^4 cells in 100 μl media per well) and incubated overnight at 37° C. The test compounds were serially half-log diluted in DMSO, then diluted 100 times in culture media. 100 μL diluted compounds were added into the plates to reach 0.5% final concentration of DMSO in every well. Five days after compound treatment, culture supernatant was collected for further analysis.
For quantitative PCR detection of extracellular HBV DNA, 100 μL culture supernatant was collected and processed in MagNA Pure 96 Nucleic Acid Purification System (Roche Applied Science) for viral DNA extraction. The extracted samples were subjected to HBV DNA quantification by qPCR.
The compounds of the present invention were tested for their capacity to inhibit a HBV activity and activation as described herein.

[3] = Cytotoxicity (CC50) in HepDE19 cells, CCK-8 cell viability; type: cell-based; conditions: human, HepDE19 cells; read-out: CC50
Description: as §1
Five days after treatment, cell viability was measured by addition of 20 μL of CCK-8 reagent. Two hours after incubation at 37° C., the absorbance at wavelengths of 450 nm and 630 nm (OD450 and OD630) was recorded by a plate reader.

[4] = Lyophilisation solubility assay (Lysa); type: physicochemical; conditions: phosphate buffer, pH 6.5, aqueous buffer, thermodynamic from solid
Procedure, shortened: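 Duplicate samples from 10 mM DMSO stocks are dried, redissolved in 0.05 M phosphate buffer pH 6.5, stirred 1 h, shaken 2 h and left overnight. Filtrate and its 1/10 dilution are quantified by direct UV or HPLC-UV, giving solubility in μg/mL.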

[5] = Metabolic stability study in human microsome; type: in vitro ADME
Procedure, shortened: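 Human liver microsomes (0.5 mg/mL) with 1 μM compound in 100 mM phosphate pH 7.4 at 37 °C, started with 1 mM NADPH or an NADPH-regenerating system. Samples taken at 0, 3, 6, 9, 15 and 30 min, quenched in methanol. Parent remaining measured by LC-MS/MS; no-cofactor controls included.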

[6] = HepG2.2.15 cells, in-house data, read-out: EC50

| Structure (SMILES) | Selectivity index (CC50/EC50) [1] | EC50 [2, 6] [nM] | CC50 at 5 days [3] [nM] | solubility thermodynamic [4] [µg/mL] | Human Hepatic Clearance [5] [mL/min/kg] | EC50 ([2]; HepG2.2.15) [nM] |
| --- | --- | --- | --- | --- | --- | --- |
| CCOC(=O)C1=C(CN2CC(F)(F)C[C@H]2C(=O)O)NC(c2nccs2)=N[C@H]1c1ccc(Cl)cc1Cl [Example 38, (R)-6-((S)-2-Carboxy-4,4-difluoro-pyrrolidin-1-ylmethyl)-4-(2,4-dichloro-phenyl)-2-thiazol-2-yl-1,4-dihydro-pyrimidine-5-carboxylic acid ethyl ester] | 6315 | 3.3 | 21000 | 291 (≈ 534 µM) | 9.3 | – |
| [2H]C1([2H])[C@@H](C(=O)O)N(CC2=C(C(=O)OC)[C@H](c3ccc(F)cc3Cl)N=C(c3nccs3)N2)CC1(F)F [Example 19, (R)-6-((S)-2-Carboxy-[3,3-^2H2]-4,4-difluoro-pyrrolidin-1-ylmethyl)-4-(2-chloro-4-fluoro-phenyl)-2-thiazol-2-yl-1,4-dihydro-pyrimidine-5-carboxylic acid methyl ester] | 15614 | 5.7 | 89000 | > 654 | 3.65 | – |
| COC(=O)C1=C(CN2CCOC[C@H]2C(=O)O)NC(c2nccs2)=N[C@H]1c1ccc(Cl)cc1F [Example 75, (S)-4-[(R)-6-(4-Chloro-2-fluoro-phenyl)-5-methoxycarbonyl-2-thiazol-2-yl-3,6-dihydro-pyrimidin-4-ylmethyl]-morpholine-3-carboxylic acid] | 5556 | 18 | > 100000 | > 632 | 0 | – |
| COC(=O)C1=C(CN2CC(F)(F)CC[C@H]2C(=O)O)NC(c2nccs2)=N[C@H]1c1cccc(F)c1Cl [Example 109, (R)-6-((S)-2-Carboxy-5,5-difluoro-piperidin-1-ylmethyl)-4-(2-chloro-3-fluoro-phenyl)-2-thiazol-2-yl-1,4-dihydro-pyrimidine-5-carboxylic acid methyl ester] | 12500 | 4.4 | 55000 | > 657 | 1.25 | – |
| COC(=O)C1=C(CN2CCOC[C@H]2C(=O)O)NC(c2nc(C3CC3)cs2)=N[C@H]1c1ccc(F)cc1Cl [Example 87, (3S)-4-[[(4R)-4-(2-Chloro-4-fluoro-phenyl)-2-(4-cyclopropylthiazol-2-yl)-5-methoxycarbonyl-1,4-dihydropyrimidin-6-yl]methyl]morpholine-3-carboxylic acid] | >4545 | 22 | 100000 | > 600 | 6.86 | – |
| COC(=O)C1=C(CN2CCOC[C@H]2C(=O)O)NC(c2nccs2)=N[C@H]1c1ccc(Cl)c(F)c1 [Example 77, (S)-4-[(S)-6-(4-Chloro-3-fluoro-phenyl)-5-methoxycarbonyl-2-thiazol-2-yl-3,6-dihydro-pyrimidin-4-ylmethyl]-morpholine-3-carboxylic acid] | 14286 | – | > 100000 | > 631 | 1.43 | 7 |
| CCOC(=O)C1=C(CN2CCOC[C@H]2C(=O)O)NC(c2nccn2C)=N[C@H]1c1ccc(F)c(F)c1 [Example 57, (S)-4-[(S)-6-(3,4-Difluoro-phenyl)-5-ethoxycarbonyl-2-(1-methyl-1H-imidazol-2-yl)-3,6-dihydro-pyrimidin-4-ylmethyl]-morpholine-3-carboxylic acid] | 2384 | 15 | 35000 | > 613 | 0 | – |
| CCOC(=O)C1=C(CN2CC(F)(F)C[C@H]2C(=O)O)NC(c2nccs2)=N[C@H]1c1ccc(F)c(F)c1 [Example 41, (S)-6-((S)-2-Carboxy-4,4-difluoro-pyrrolidin-1-ylmethyl)-4-(3,4-difluoro-phenyl)-2-thiazol-2-yl-1,4-dihydro-pyrimidine-5-carboxylic acid ethyl ester] | 2372 | 17 | 40000 | > 630 | 6.83 | – |
| CCOC(=O)C1=C(CN2CC(F)(F)C[C@H]2C(=O)O)NC(c2nccs2)=N[C@H]1c1cccc(F)c1F [Example 50, (R)-6-((S)-2-Carboxy-4,4-difluoro-pyrrolidin-1-ylmethyl)-4-(2,3-difluoro-phenyl)-2-thiazol-2-yl-1,4-dihydro-pyrimidine-5-carboxylic acid ethyl ester] | 1905 | 14 | 26000 | > 580 | 0 | – |
| COC(=O)C1=C(CN2CC(F)(F)C[C@H]2C(=O)O)NC(c2nc(C(C)C)cs2)=N[C@H]1c1ccc(F)cc1Cl [Example 28, (R)-6-((S)-2-Carboxy-4,4-difluoro-pyrrolidin-1-ylmethyl)-4-(2-chloro-4-fluoro-phenyl)-2-(4-isopropyl-thiazol-2-yl)-1,4-dihydro-pyrimidine-5-carboxylic acid methyl ester] | 7045 | 4.4 | 31000 | 247 (≈ 443 µM) | – | – |
| CCOC(=O)C1=C(CN2CCOC[C@H]2C(=O)O)NC(c2nccs2)=N[C@H]1c1ccc(Cl)c(F)c1 [Example 83, (S)-4-[(S)-6-(4-Chloro-3-fluoro-phenyl)-5-ethoxycarbonyl-2-thiazol-2-yl-3,6-dihydro-pyrimidin-4-ylmethyl]-morpholine-3-carboxylic acid] | 16440 | 1.5 | 25000 | > 652 | 1.77 | – |
| CCOC(=O)C1=C(CN2CCOC[C@H]2C(=O)O)NC(c2nccs2)=N[C@H]1c1ccc(Cl)cc1F [Example 49, (S)-4-[(R)-6-(4-Chloro-2-fluoro-phenyl)-5-ethoxycarbonyl-2-thiazol-2-yl-3,6-dihydro-pyrimidin-4-ylmethyl]-morpholine-3-carboxylic acid] | 8936 | 4.7 | 42000 | > 679 | 0 | – |
| COC(=O)C1=C(CN2CCOC[C@H]2C(=O)O)NC(c2nc(SC)cs2)=N[C@H]1c1ccc(F)cc1Cl [Example 61, (3S)-4-[[(4R)-4-(2-Chloro-4-fluorophenyl)-5-methoxycarbonyl-2-(4-methylsulfanyl-1,3-thiazol-2-yl)-1,4-dihydropyrimidin-6-yl]methyl]morpholine-3-carboxylic acid] | 3133 | 18 | 56000 | 495 (≈ 915 µM) | – | – |
| CCOC(=O)C1=C(CN2CCO[C@H](C)[C@H]2C(=O)O)NC(c2nccs2)=N[C@H]1c1ccc(F)c(F)c1 [Example 112, (2R,3S)-4-[(S)-6-(3,4-Difluoro-phenyl)-5-ethoxycarbonyl-2-thiazol-2-yl-3,6-dihydro-pyrimidin-4-ylmethyl]-2-methyl-morpholine-3-carboxylic acid] | 14123 | 5.2 | 73000 | – | 1.95 | – |
